Values joined by “and” are separate entries in the source; they are usually repeats but may differ in a detail not shown here. Identical values can stand only once.
Experiments:
Type in all cases: cell-based, human
iPS6.1 cells [1] = assay: iPS6.1 Growth Factor Titration #1; details: HGF 0, 5, 20, 50, 150 ng/mL
Procedure: (§1) Aggregate formation and cardiac induction procedures of those iPS cells at different initial densities were performed essentially the same as described in Examples 4 except different concentrations of human HGF (hHGF) and FGF were applied to Aggregate Formation Medium, Aggregate Transition Medium and Cardiac Induction Medium.
Conditions without FGF had virtually no surviving aggregates and no measurable cardiomyocytes (FIGS. 29A-B). On the other hand, all conditions with FGF yielded cardiomyocytes independent of HGF concentration (FIGS. 29A-B).

iPS6.1 and H9-TGZ cells = assay: Meta-analysis of paired conditions with and without 50 ng/mL HGF
Procedure: A meta-analysis across these experiments was performed to assess whether the inventors could detect any measurable benefit of including HGF in the induction medium. This analysis reviewed all the available experiments for paired conditions with and without 50 ng/mL HGF. […] This left 14 paired conditions (11 performed in triplicate within an experiment). To aid in this analysis, a process raw material cost model was employed to estimate the cost per million cardiomyocytes under each condition. This model used the most up-to-date raw material cost and process information available at the time (˜Jun. 1, 2009).

H9-TGZ cells [2] = assay: H9-TGZ Growth Factor Titration #2; details: HGF 0, 20, 50
Procedure: as §1
While the iPS6.1 optimization was underway, a separate series of experiments was conducted to optimize the growth factor concentrations for the H9-TGZ cells. […] Therefore, the FGF range tested was higher than that in the recent iPS6.1 experiments. This experiment confirmed that optimum cardiomyocyte production requires 100-150 ng/mL FGF with the H9-TGZ cells (FIGS. 31A-C).

iPS6.1 cells [3] = assay: iPS6.1 Growth Factor Titration #2; details: HGF 0, 20, 50 ng/mL, best performing FGF concentration conditions
Procedure: as §1
Based on the results of the first experiment (see FIGS. 29A-B), the second iPS6.1 growth factor titration focused on the lower dose range for both FGF and HGF (FIGS. 30A-B). […] However, it is important to note that in no case did the omission of HGF lead to the failure of a condition which was otherwise successful in the presence of HGF.

iPS6.1 cells [4] = assay: iPS6.1 Four Corners experiment, FGF x HGF cardiac induction
Procedure: as §1
Concurrent with the second iPS growth factor titration, a simple experiment (Table 19) was set up with iPS6.1 cells to test the 2×2 matrix of 0 and 25 ng/mL FGF and 0 and 50 ng/mL HGF. The positive concentrations of FGF and HGF were chosen based on the current best practices for iPS6.1 cells at the time and were identical to the conditions used for cardiac induction of H1 cells in both the plated and suspension processes. This experiment confirmed previous work showing the necessity of FGF for the process.

H9-TGZ cells [5] = assay: H9-TGZ Growth Factor Titration #2 (repeat); details: FIGS. 32A-C
Procedure: as §1
Due to the issues with aggregate formation noted above, the H9-TGZ growth factor titration experiment was repeated. […] However, it is important to note that despite the overall poor performance of the cultures, the usual and expected decrease in performance at low FGF level was still discernable (FIGS. 32A-C).

[6] = First iPS 4-corners, head-to-head pairings with purity >1%
[7] = First iPS GF matrix, head-to-head pairings with purity >1%
[8] = H9-TGZ Matrix #2, head-to-head pairings with purity >1%
[9] = H9-TGZ Matrix #2 repeat, head-to-head pairings with purity >1%
[10] = HGF Conc 50 ng/mL, 14 paired conditions
[11] = Second iPS GF matrix, head-to-head pairings with purity >1%
[12] = Total of all experiments, head-to-head pairings with purity >1%

HGF: human recombinant HGF (hepatic growth factor), R&D systems
Trend in cardiomyocyte yield or iPS:CM ratio across HGF concentrations (iPS6.1 cells [1]): no consistent trend in cardiomyocyte yield or iPS:CM ratio | Fraction with better CM/L @ 50 ng/mL HGF than 0 (iPS6.1 and H9-TGZ cells; [6]): 0/1 | Fraction with better iPS:CM ratio @ 50 ng/mL HGF than 0 (iPS6.1 and H9-TGZ cells; [6]): 0/1 | Fraction with better CM/L @ 50 ng/mL HGF than 0 (iPS6.1 and H9-TGZ cells; [7]): 3/4 | Fraction with better iPS:CM ratio @ 50 ng/mL HGF than 0 (iPS6.1 and H9-TGZ cells; [7]): 3/4 | Fraction with better CM/L @ 50 ng/mL HGF than 0 (iPS6.1 and H9-TGZ cells; [8]): 2/4 | Fraction with better iPS:CM ratio @ 50 ng/mL HGF than 0 (iPS6.1 and H9-TGZ cells; [8]): 2/4 | Fraction with better CM/L @ 50 ng/mL HGF than 0 (iPS6.1 and H9-TGZ cells; [9]): 0/1 | Fraction with better iPS:CM ratio @ 50 ng/mL HGF than 0 (iPS6.1 and H9-TGZ cells; [9]): 0/1 | CM/L, Average (iPS6.1 and H9-TGZ cells; [10]): 49 | CM/L, Best (iPS6.1 and H9-TGZ cells; [10]): 140 | CM/L, Worst (iPS6.1 and H9-TGZ cells; [10]): 1.5 | iPS:CM, Average (iPS6.1 and H9-TGZ cells; [10]): 100 | iPS:CM, Best (iPS6.1 and H9-TGZ cells; [10]): 7 | iPS:CM, Worst (iPS6.1 and H9-TGZ cells; [10]): 712 | Fraction with better CM/L @ 50 ng/mL HGF than 0 (iPS6.1 and H9-TGZ cells; [11]): 2/4 | Fraction with better iPS:CM ratio @ 50 ng/mL HGF than 0 (iPS6.1 and H9-TGZ cells; [11]): 2/4 | Fraction with better CM/L @ 50 ng/mL HGF than 0 (iPS6.1 and H9-TGZ cells; [12]): 7/14 | Fraction with better iPS:CM ratio @ 50 ng/mL HGF than 0 (iPS6.1 and H9-TGZ cells; [12]): 7/14 | Effect of HGF in cardiomyocyte production process (on average) (iPS6.1 and H9-TGZ cells; with vs without 50 ng/mL HGF, 14 paired conditions): no measurable positive or negative effect | Trend in process efficiency across different HGF concentrations (H9-TGZ cells [2]): No trend was observed in process efficiency | Trend of productivity with HGF concentration (iPS6.1 cells [3]): productivity increased with higher HGF concentrations | input iPS:CM (iPS6.1 cells [4]; iPS6.1 cells, 25 ng/mL FGF and/or 50 ng/mL HGF, single T25 flask, day 14): 6725 | % cTNT+ (iPS6.1 cells [4]; iPS6.1 cells, 25 ng/mL FGF and/or 50 ng/mL HGF, single T25 flask, day 14, listed as HGF only): 0% and 1.5% and 7% | Overall culture efficiency (iPS6.1 cells [4]; inclusion of HGF (50 ng/mL) together with FGF (25 ng/mL) versus FGF alone): reduced overall culture efficiency | Trend of culture performance across HGF concentrations (H9-TGZ cells [5]): no observable trend of culture performance

From patent US10604739B2, “Cardiomyocyte production” (Cellular Dynamics International, Inc., priority 2009, dated 2020)
